Measurements reported in ChEMBL document CHEMBL1649389, “Microwave supported synthesis of some novel 1,3-diarylpyrazino[1,2-a]benzimidazole derivatives and investigation of their anticancer activities” (2011).

Tests used:
Type in all cases: functional
[1] = Cytotoxicity against human leukemia cells assessed as cell growth after 48 hrs by SRB assay
NSCLC = assay: Cytotoxicity against human NSCLC cells assessed as cell growth after 48 hrs by SRB assay
[2] = Cytotoxicity against human colon cancer cells assessed as cell growth after 48 hrs by SRB assay; conditions: Cancer cell lines
[3] = Cytotoxicity against human CNSC cells assessed as cell growth after 48 hrs by SRB assay
[4] = Cytotoxicity against human melanoma cells assessed as cell growth after 48 hrs by SRB assay
[5] = Cytotoxicity against human ovarian cancer cells assessed as cell growth after 48 hrs by SRB assay; conditions: Cancer cell lines
[6] = Cytotoxicity against human renal cancer cells assessed as cell growth after 48 hrs by SRB assay; conditions: Cancer cell lines
[7] = Cytotoxicity against human prostate cancer cells assessed as cell growth after 48 hrs by SRB assay; conditions: Cancer cell lines
[8] = Cytotoxicity against human breast cancer cells assessed as cell growth after 48 hrs by SRB assay; conditions: Cancer cell lines

COc1ccc(C(=O)Cn2c(C(=O)c3ccc(OC)cc3)nc3ccccc32)cc1
GI50 [1]: 0.741 µM | GI50 (NSCLC): 15.1 µM | GI50 [2]: 1.26 µM | GI50 [3]: 3.31 µM | GI50 [4]: 3.24 µM | GI50 [5]: 3.02 µM | GI50 [6]: 3.89 µM | GI50 [7]: 2.95 µM | GI50 [8]: 2.4 µM

O=C(Cn1c(C(=O)c2ccccc2)nc2ccccc21)c1ccccc1
GI50 [1]: 52.5 µM | GI50 (NSCLC): 69.2 µM | GI50 [2]: 63.1 µM | GI50 [3]: 83.2 µM | GI50 [4]: 100 µM | GI50 [5]: 100 µM | GI50 [6]: 87.1 µM | GI50 [7]: 72.4 µM | GI50 [8]: 9.33 µM

COc1ccc(C(=O)Cn2c(C(=O)c3ccccc3)nc3ccccc32)cc1
GI50 [1]: 0.724 µM | GI50 (NSCLC): 9.33 µM | GI50 [2]: 1.51 µM | GI50 [3]: 3.98 µM | GI50 [4]: 2.95 µM | GI50 [5]: 3.63 µM | GI50 [6]: 3.24 µM | GI50 [7]: 3.24 µM | GI50 [8]: 2.24 µM

O=C(Cn1c(C(=O)c2ccccc2)nc2ccccc21)c1ccc(F)cc1
GI50 [1]: 1.41 µM | GI50 (NSCLC): 18.6 µM | GI50 [2]: 3.55 µM | GI50 [3]: 8.51 µM | GI50 [4]: 4.57 µM | GI50 [5]: 10.7 µM | GI50 [6]: 2.75 µM | GI50 [7]: 13.5 µM | GI50 [8]: 3.98 µM

COc1ccc(C(=O)c2nc3ccccc3n2CC(=O)c2ccc(Cl)cc2)cc1
GI50 [1]: 0.724 µM | GI50 (NSCLC): 14.5 µM | GI50 [2]: 2.51 µM | GI50 [3]: 3.39 µM | GI50 [4]: 2.45 µM | GI50 [5]: 5.25 µM | GI50 [6]: 3.72 µM | GI50 [7]: 3.02 µM | GI50 [8]: 3.47 µM

COc1ccc(C(=O)Cn2c(C(=O)c3ccc(Cl)cc3)nc3ccccc32)cc1
GI50 [1]: 2.57 µM | GI50 (NSCLC): 18.6 µM | GI50 [2]: 5.01 µM | GI50 [3]: 16.6 µM | GI50 [4]: 9.55 µM | GI50 [5]: 17.8 µM | GI50 [6]: 14.1 µM | GI50 [7]: 24 µM | GI50 [8]: 6.17 µM

N[C@@H](Cc1ccc(N(CCCl)CCCl)cc1)C(=O)O
GI50 [1]: 3.31 µM | GI50 (NSCLC): 6.76 µM | GI50 [2]: 7.76 µM | GI50 [3]: 7.59 µM | GI50 [4]: 8.32 µM | GI50 [5]: 6.61 µM | GI50 [6]: 10.2 µM | GI50 [7]: 32.4 µM | GI50 [8]: 16.2 µM
